Results published in ChEMBL document CHEMBL3632542, “A computational view on the significance of E-ring in binding of (+)-arisugacin A to acetylcholinesterase” (Bioorg Med Chem Lett, 2015).

Target: Acetylcholinesterase (Homo sapiens, UniProt P22303)
Test: Inhibition of human AChE

Acetylcholinesterase, sequence (P22303 whole entry): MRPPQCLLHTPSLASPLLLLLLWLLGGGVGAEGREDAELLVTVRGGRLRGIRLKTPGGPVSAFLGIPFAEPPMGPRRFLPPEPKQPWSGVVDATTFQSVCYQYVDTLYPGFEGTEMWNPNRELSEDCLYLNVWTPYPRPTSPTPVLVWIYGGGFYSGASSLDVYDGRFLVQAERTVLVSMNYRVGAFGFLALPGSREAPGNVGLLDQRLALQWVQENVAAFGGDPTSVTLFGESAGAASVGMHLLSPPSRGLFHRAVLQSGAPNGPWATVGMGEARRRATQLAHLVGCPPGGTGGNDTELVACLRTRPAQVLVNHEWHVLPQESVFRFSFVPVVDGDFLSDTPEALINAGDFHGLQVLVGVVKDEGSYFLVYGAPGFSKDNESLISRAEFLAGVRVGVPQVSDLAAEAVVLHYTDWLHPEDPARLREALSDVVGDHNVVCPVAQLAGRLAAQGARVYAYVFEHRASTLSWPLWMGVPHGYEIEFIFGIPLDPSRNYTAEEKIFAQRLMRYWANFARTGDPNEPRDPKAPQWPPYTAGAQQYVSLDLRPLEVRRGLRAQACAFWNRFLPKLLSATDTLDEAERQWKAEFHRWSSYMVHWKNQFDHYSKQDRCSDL

SMILES	IC50
COc1ccc(-c2cc3c(c(=O)o2)C[C@H]2[C@@](C)(CC[C@@]4(O)C(C)(C)C(=O)CC[C@]24C)O3)cc1	2500 nM
COc1ccc(-c2cc3c(c(=O)o2)C[C@]2(O)[C@@]4(C)CC[C@@H](OC(C)=O)C(C)(C)[C@]4(O)CC[C@@]2(C)O3)cc1	3500 nM
COc1ccc(-c2cc3c(c(=O)o2)C[C@H]2[C@@](C)(CC[C@@]4(O)C(C)(C)[C@H](O)CC[C@]24C)O3)cc1	> 100000 nM
COc1ccc(-c2cc3c(c(=O)o2)C[C@@H]2[C@@]4(C)CC[C@H](O)C(C)(C)[C@@H]4CC[C@@]2(C)O3)cc1	> 100000 nM
COc1ccc(-c2cc3c(c(=O)o2)C[C@@H]2[C@@]4(C)CCC(=O)C(C)(C)[C@@H]4CC[C@@]2(C)O3)cc1	> 100000 nM
COc1ccc(-c2cc3c(c(=O)o2)C[C@]2(O)[C@@]4(C)[C@@H](O)C[C@@H](OC(C)=O)C(C)(C)[C@]4(O)CC[C@@]2(C)O3)cc1	> 100000 nM
COc1cc(-c2cc3c(c(=O)o2)C[C@]2(O)[C@@]4(C)C(=O)C=CC(C)(C)[C@]4(O)CC[C@@]2(C)O3)cc(OC)c1O	6.8 nM
COc1cc(-c2cc3c(c(=O)o2)C[C@]2(O)[C@@]4(C)C(=O)C=CC(C)(C)[C@]4(O)CC[C@@]2(C)O3)cc(OC)c1OC [TERRITREM B]	7.6 nM
